Data published in patent publication US20130122147A1, “METHODS FOR ENHANCING THE PALATABILITY OF COMESTIBLE COMPOSITIONS” (priority 2010, published 2013).

System: dogs
Assay: Two-bowl choice palatability test of pet foods
Assay type: in vivo
Experimental: Palatability testing followed the industry standard protocol for assessing preference, i.e., the two-bowl choice test. The dogs were tested individually inside their kennels. The panels consisted of a mix of breeds, distributed as equally as possible. The dogs were at least 12 months of age and the sex distribution was as equal as possible within panels. A choice of two bowls each with the same amount food, the test and the control diets, was offered simultaneously. The maximum length of the time the products were offered to the dogs was 20 minutes. Water was available at all times via an automatic water system. Bowl assignment for the foods was always counterbalanced.
At the end of a test, food consumption for each pet food for each dog was determined by subtracting the amount of food remaining in the bowls from what was initially offered to the dogs. A dog's preference was determined based on which food was most consumed.
The experiment was repeated twice.

## CCCCCCCC/C=C\CCCCCCCC(=O)NCCO [OEA, N-oleoyl-ethanolamide]
Food of Table 9 (0.41% OEA in basal meal) vs control Ex 7
  Effect of OEA on palatability of the pet food (result in words): enhanced the palatability
Foods of Table 8 (0.066-0.566% OEA) vs control Ex 1
  Effect of OEA on palatability of the pet foods (result in words): enhanced the palatability
